test system: PKC mediated IL-2 production; assay: IL-2 ELISA, human primary T cell, anti CD3+CD28+; assay type: cell-based; conditions: Homo sapiens, T-cell, 24 h, human primary T cells stimulated with αCD3 and αCD28, 24 hours
Outline: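 Human peripheral blood T cells, pre-expanded with αCD3/αCD28 and IL-2 and then washed free of IL-2, were pre-incubated with compound for 1 h at 37° C. They were then stimulated on plates coated with […] αCD3 and 5 μg/ml αCD28, or with 0.5 ng/ml PMA plus 0.1 uM ionomycin in the counter assay. IL-2 in supernatants was measured by ELISA after 24 h.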

| EC50 | Compound |
| --- | --- |
| < 0.1 µM | Cn1nnn(-c2cc(Nc3ncc(F)c(N[C@@H]4C[C@@H]5CCCN5C(C)(C)C4)n3)ccc2OCCO)c1=O [Compound 132, 1-(5-((4-(((7R,8aS)-5,5-dimethyloctahydroindolizin-7-yl)amino)-5-fluoropyrimidin-2-yl)amino)-2-(2-hydroxyethoxy)phenyl)-4-methyl-1,4-dihydro-5H-tetrazol-5-one] |
| 0.1 to 0.5 µM | Cn1nnn(-c2cc(Nc3ncc(F)c(N[C@@H]4C[C@@H]5CCCN5C(C)(C)C4)n3)c(F)cc2OCC2(C)COC2)c1=O [Compound 159, 1-(5-((4-(((7R,8aS)-5,5-dimethyloctahydroindolizin-7-yl)amino)-5-fluoropyrimidin-2-yl)amino)-4-fluoro-2-((3-methyloxetan-3-yl)methoxy)phenyl)-4-methyl-1,4-dihydro-5H-tetrazol-5-one] |
| > 10 µM | Cn1nnn(-c2cc(Nc3ncc(F)c(N(CC(C)(C)O)[C@@H]4C[C@@H]5CCCN5C(C)(C)C4)n3)c(F)cc2OCC(C)(C)O)c1=O [Compound 139, 1-(5-(4-(((7R,8aS)-5,5-dimethyloctahydroindolizin-7-yl)(2-hydroxy-2-methylpropyl)amino)-5-fluoropyrimidin-2-ylamino)-4-fluoro-2-(2-hydroxy-2-methylpropoxy)phenyl)-4-methyl-1H-tetrazol-5(4H)-one] |
| > 10 µM | [2H]C([2H])(O)C([2H])([2H])Oc1ccc(Nc2ncc(F)c(N[C@@H]3C[C@@H]4CCCN4C(C)(C)C3)n2)cc1OC [Compound 217, 2-(4-((4-(((7R,8aS)-5,5-dimethyloctahydroindolizin-7-yl)amino)-5-fluoropyrimidin-2-yl)amino)-2-methoxyphenoxy)ethan-1,1,2,2-d4-1-ol] |
| < 0.1 µM | Cc1nnnn1-c1cc(Nc2ncc(F)c(N[C@@H]3C[C@@H]4CCCN4C(C)(C)C3)n2)c(F)cc1OC1COC1 [Compound 249, 5-fluoro-N2-(2-fluoro-5-(5-methyl-1H-tetrazol-1-yl)-4-(oxetan-3-yloxy)phenyl)-N4-((7R,8aS)-octahydro-5,5-dimethylindolizin-7-yl)pyrimidine-2,4-diamine] |
| < 0.1 µM | CC(C)N1CCN(c2ccc(Nc3ncc(F)c(N[C@@H]4C[C@@H]5CCCN5C(C)(C)C4)n3)cc2C#N)CC1 [Compound 138, 5-(4-((7R,8aS)-octahydro-5,5-dimethylindolizin-7-ylamino)-5-fluoropyrimidin-2-ylamino)-2-(4-isopropylpiperazin-1-yl)benzonitrile] |
| 0.1 to 0.5 µM | CC1(C)C[C@H](Nc2nc(Nc3ccc(OC4CCN(C5COC5)CC4)c(C(F)(F)F)c3)ncc2F)C[C@@H]2CCCN21 [Compound 120] |

The next lines start with the compound.

| Compound | EC50 |
| --- | --- |
| CC1(C)C[C@H](Nc2nc(Nc3ccc(OCC4CCO4)c(C#N)c3)ncc2F)C[C@@H]2CCCN21 (stereo partly drawn) [Compound 176, 5-(4-((7R,8aS)-5,5-dimethyloctahydroindolizin-7-ylamino)-5-fluoropyrimidin-2-ylamino)-2-(oxetan-2-ylmethoxy)benzonitrile] | 0.1 to 0.5 µM |
| CC1(C)C[C@H](Nc2nc(Nc3cccc(-n4nn[nH]c4=O)c3)ncc2F)C[C@@H]2CCCN21 [Compound 260, 1-(3-(4-((7R,8aS)-octahydro-5,5-dimethylindolizin-7-ylamino)-5-fluoropyrimidin-2-ylamino)phenyl)-1H-tetrazol-5(4H)-one] | > 10 µM |
| CC1(C)C[C@H](Nc2nc(Nc3cccc(-n4nnnc4SC(CO)CO)c3)ncc2F)C[C@@H]2CCCN21 [Compound 263, 2-(1-(3-(4-((7R,8aS)-octahydro-5,5-dimethylindolizin-7-ylamino)-5-fluoropyrimidin-2-ylamino)phenyl)-1H-tetrazol-5-ylthio)propane-1,3-diol] | 0.1 to 0.5 µM |
| COc1cc(-n2nnnc2C)cc(Nc2ncc(F)c(N[C@@H]3C[C@@H]4CCCN4C(C)(C)C3)n2)c1F [Compound 242, 5-fluoro-N2-(2-fluoro-3-methoxy-5-(5-methyl-1H-tetrazol-1-yl)phenyl)-N4-((7R,8aS)-octahydro-5,5-dimethylindolizin-7-yl)pyrimidine-2,4-diamine] | < 0.1 µM |
| CC(C)Oc1cc(F)c(Nc2ncc(F)c(N[C@@H]3C[C@@H]4CCCN4C(C)(C)C3)n2)cc1-n1nnnc1C1CC1 [Compound 257, N2-(5-(5-cyclopropyl-1H-tetrazol-1-yl)-2-fluoro-4-isopropoxyphenyl)-5-fluoro-N4-((7R,8aS)-octahydro-5,5-dimethylindolizin-7-yl)pyrimidine-2,4-diamine] | > 10 µM |
| CC1(C)C[C@H](Nc2nc(Nc3cccc(-n4nnnc4SCCO)c3)ncc2F)C[C@@H]2CCCN21 [Compound 266, 2-(1-(3-(4-((7R,8aS)-octahydro-5,5-dimethylindolizin-7-ylamino)-5-fluoropyrimidin-2-ylamino)phenyl)-1H-tetrazol-5-ylthio)ethanol] | < 0.1 µM |
| CC1(C)C[C@@H](Nc2nc(Nc3cc(-n4cnnn4)c(C4CC4)cc3F)ncc2F)C[C@@H]2CC(F)(F)CN21 [Compound 43, N^2-(4-cyclopropyl-2-fluoro-5-(1H-tetrazol-1-yl)phenyl)-5-fluoro-N^4-((7S,8aR)-2,2-difluoro-octahydro-5,5-dimethylindolizin-7-yl)pyrimidine-2,4-diamine] | 1 to 10 µM |
| CC1(COc2ccc(Nc3ncc(F)c(N[C@@H]4C[C@@H]5CCCN5C(C)(C)C4)n3)cc2-n2cnnn2)COC1 [Compound 203, N4-((7R,8aS)-5,5-dimethyloctahydroindolizin-7-yl)-5-fluoro-N2-(4-((3-methyloxetan-3-yl)methoxy)-3-(1H-tetrazol-1-yl)phenyl)pyrimidine-2,4-diamine] | < 0.1 µM |
| CC1(C)C[C@H](Nc2nc(Nc3cccc(-n4nnn(C5COC5)c4=O)c3)ncc2F)C[C@@H]2CCCN21 [Compound 265, 1-(3-(4-((7R,8aS)-octahydro-5,5-dimethylindolizin-7-ylamino)-5-fluoropyrimidin-2-ylamino)phenyl)-4-(oxetan-3-yl)-1H-tetrazol-5(4H)-one] | 0.1 to 0.5 µM |
| Cn1nnn(-c2cc(Nc3ncc(F)c(N[C@H]4C[C@@H]5CC(F)(F)CN5C(C)(C)C4)n3)c(F)cc2C2CC2)c1=O [Compound 42, 1-(5-(4-((7S,8aR)-2,2-difluoro-octahydro-5,5-dimethylindolizin-7-ylamino)-5-fluoropyrimidin-2-ylamino)-2-cyclopropyl-4-fluorophenyl)-4-methyl-1H-tetrazol-5(4H)-one] | 1 to 10 µM |
| CC1(C)C[C@H](Nc2nc(Nc3ccc(OCC4CCOCC4)c(C#N)c3)ncc2F)C[C@@H]2CCCN21 [Compound 178, 5-(4-((7R,8aS)-5,5-dimethyloctahydroindolizin-7-ylamino)-5-fluoropyrimidin-2-ylamino)-2-((tetrahydro-2H-pyran-4-yl)methoxy)benzonitrile] | 0.1 to 0.5 µM |
| CC1(C)C[C@H](Nc2nc(Nc3ccc(OCC4(CO)COC4)c(C#N)c3)ncc2F)C[C@@H]2CCCN21 [Compound 174, 5-(4-((7R,8aS)-5,5-dimethyloctahydroindolizin-7-ylamino)-5-fluoropyrimidin-2-ylamino)-2-((3-(hydroxymethyl)oxetan-3-yl)methoxy)benzonitrile] | 0.5 to 1 µM |
| CNc1nnnn1-c1cc(Nc2ncc(F)c(N[C@@H]3C[C@@H]4CCCN4C(C)(C)C3)n2)c(F)cc1OC1COC1 [Compound 258, 5-fluoro-N2-(2-fluoro-5-(5-(methylamino)-1H-tetrazol-1-yl)-4-(oxetan-3-yloxy)phenyl)-N4-((7R,8aS)-octahydro-5,5-dimethylindolizin-7-yl)pyrimidine-2,4-diamine] | 1 to 10 µM |
| CC1(C)C[C@H](Nc2nc(Nc3cccc(-n4nnnc4SC(CN)CO)c3)ncc2F)C[C@@H]2CCCN21 (stereo partly drawn) [Compound 264, 2-(1-(3-(4-((7R,8aS)-octahydro-5,5-dimethylindolizin-7-ylamino)-5-fluoropyrimidin-2-ylamino)phenyl)-1H-tetrazol-5-ylthio)-3-aminopropan-1-ol] | 1 to 10 µM |
| Cn1nnn(-c2cc(Nc3ncc(F)c(NC4CCN5C(CCC5(C)C)C4)n3)c(F)cc2C2CC2)c1=O (single isomer, unassigned) [Compound 34, 1-(5-(5-fluoro-4-(octahydro-3,3-dimethylindolizin-7-ylamino)pyrimidin-2-ylamino)-2-cyclopropyl-4-fluorophenyl)-4-methyl-1H-tetrazol-5(4H)-one] | 1 to 10 µM |
| Cn1nnn(-c2cc(Nc3ncc(F)c(N[C@@H]4C[C@@H]5CC(F)(F)CN5C(C)(C)C4)n3)c(F)cc2C2CC2)c1=O [Compound 45, 1-(5-(4-((7R,8aR)-2,2-difluoro-octahydro-5,5-dimethylindolizin-7-ylamino)-5-fluoropyrimidin-2-ylamino)-2-cyclopropyl-4-fluorophenyl)-4-methyl-1H-tetrazol-5(4H)-one] | 1 to 10 µM |

same assay, conditions: human primary T cells stimulated with αCD3 and αCD28, 24 hours

| EC50 | Compound |
| --- | --- |
| 0.5 to 1 µM | Cn1nc2n(c1=O)-c1cc(Nc3ncc(F)c(N[C@@H]4C[C@@H]5CCCN5C(C)(C)C4)n3)ccc1OCC2(C)O (stereo partly drawn) [Compound 295, 5-fluoro-N2-(1H-2,3,4,5-tetrahydron-2,4-dimethyl-4-hydroxy-[1,2,4]triazolo[4,5-c][1,5]benzoxazepin-1-one-9-yl)-N4-((7R,8aS)-octahydro-5,5-dimethylindolizin-7-yl)pyrimidine-2,4-diamine] |
| 0.5 to 1 µM | COc1cc(Nc2ncc(F)c(N[C@@H]3C[C@H]4CCCN4C(C)(C)C3)n2)cc(-n2nnnc2C)c1 (single isomer, unassigned) [Compound 12, (R/S, S/R, R/R, S/S)-5-fluoro-N4-(octahydro-5,5-dimethylindolizin-7-yl)N2-(3-methoxy-5-(5-methyl-1H-tetrazol-1-yl)phenyl)pyrimidine-2,4-diamine] |
| < 0.1 µM | COc1cc(Nc2ncc(F)c(N[C@@H]3C[C@@H]4CCCN4C(C)(C)C3)n2)cc(-n2nnnc2C)c1 (single isomer, unassigned) [Compound 14, (R/S, S/R, R/R, S/S)-5-fluoro-N4-(octahydro-5,5-dimethylindolizin-7-yl)N2-(3-methoxy-5-(5-methyl-1H-tetrazol-1-yl)phenyl)pyrimidine-2,4-diamine] |

Source: patent publication US9682976B2, “Protein kinase C inhibitors and uses thereof” (Rigel Pharmaceuticals, Inc., priority 2012, dated 2017)
